Laboratory results taken from PubChem BioAssay AID1963852 (Molecular Pharmacology Branch, DTP, NCI, 2024).

Tested on: 282377-053-R-J1-PDC complex spheroid viability
Assay: Anticancer human tumor 282377-053-R-J1-PDC patient-derived colon adenocarcinoma cell line growth inhibition [POLQ]
Details: for IC50: curve of first compound; for viability, T/C: stronger effect = lower value
Summary of the method: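 Patient-derived tumour cells were co-cultured with HUVEC and mesenchymal stem cells as multicellular spheroids at 37 °C. They were treated with POLQ inhibitors (novobiocin, ART-558, RP6685) alone or combined with other agents. Top concentrations were at or near clinical Cmax (otherwise 10 microM; SN-38 at 1 microM), decreasing in half-log steps.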

[1] = second compound 0.0316 µM, first compound 0.0316 µM
[2] = second compound 0.0316 µM, first compound 0.1 µM
[3] = second compound 0.0316 µM, first compound 0.316 µM
[4] = second compound 0.0316 µM, first compound 1 µM
[5] = second compound 0.0316 µM, first compound 3.16 µM
[6] = second compound 0.0316 µM, first compound 10 µM
[7] = second compound 0.1 µM, first compound 0.0316 µM
[8] = second compound 0.1 µM, first compound 0.1 µM
[9] = second compound 0.1 µM, first compound 0.316 µM
[10] = second compound 0.1 µM, first compound 1 µM
[11] = second compound 0.1 µM, first compound 3.16 µM
[12] = second compound 0.1 µM, first compound 10 µM
[13] = second compound 0.316 µM, first compound 0.0316 µM
[14] = second compound 0.316 µM, first compound 0.1 µM
[15] = second compound 0.316 µM, first compound 0.316 µM
[16] = second compound 0.316 µM, first compound 1 µM
[17] = second compound 0.316 µM, first compound 3.16 µM
[18] = second compound 0.316 µM, first compound 10 µM
[19] = second compound 1 µM, first compound 0.0316 µM
[20] = second compound 1 µM, first compound 0.1 µM
[21] = second compound 1 µM, first compound 0.316 µM
[22] = second compound 1 µM, first compound 1 µM
[23] = second compound 1 µM, first compound 3.16 µM
[24] = second compound 1 µM, first compound 10 µM
[25] = second compound 3.16 µM, first compound 0.0316 µM
[26] = second compound 3.16 µM, first compound 0.1 µM
[27] = second compound 3.16 µM, first compound 0.316 µM
[28] = second compound 3.16 µM, first compound 1 µM
[29] = second compound 3.16 µM, first compound 3.16 µM
[30] = second compound 3.16 µM, first compound 10 µM
[31] = second compound 10 µM, first compound 0.0316 µM
[32] = second compound 10 µM, first compound 0.1 µM
[33] = second compound 10 µM, first compound 0.316 µM
[34] = second compound 10 µM, first compound 1 µM
[35] = second compound 10 µM, first compound 3.16 µM
[36] = second compound 10 µM, first compound 10 µM
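Further: spheroids exposed to compounds for seven days.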
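Wherever viability, T/C is given: 100% = DMSO vehicle control viability.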

C=CC(=O)N1CCN(c2nc(=O)n(-c3c(C)ccnc3C(C)C)c3nc(-c4c(O)cccc4F)c(F)cc23)C(C)C1 (stereo unspecified) + COC1C(OC(N)=O)C(O)C(Oc2ccc3c(O)c(NC(=O)c4ccc(O)c(CC=C(C)C)c4)c(=O)oc3c2C)OC1(C)C
IC50 (second compound 0.0316 µM): > 10 µM
IC50 (second compound 0.1 µM): > 10 µM
IC50 (second compound 0.316 µM): > 10 µM
IC50 (second compound 1 µM): > 10 µM
IC50 (second compound 3.16 µM): > 10 µM
IC50 (second compound 10 µM): > 10 µM
viability, T/C [1]: 114%
viability, T/C [2]: 103%
viability, T/C [3]: 102%
viability, T/C [4]: 94.9%
viability, T/C [5]: 111%
viability, T/C [6]: 94.4%
viability, T/C [7]: 107%
viability, T/C [8]: 116%
viability, T/C [9]: 96.5%
viability, T/C [10]: 115%
viability, T/C [11]: 108%
viability, T/C [12]: 102%
viability, T/C [13]: 105%
viability, T/C [14]: 124%
viability, T/C [15]: 113%
viability, T/C [16]: 100%
viability, T/C [17]: 113%
viability, T/C [18]: 77%
viability, T/C [19]: 94.9%
viability, T/C [20]: 114%
viability, T/C [21]: 114%
viability, T/C [22]: 98.1%
viability, T/C [23]: 89.6%
viability, T/C [24]: 85.4%
viability, T/C [25]: 115%
viability, T/C [26]: 113%
viability, T/C [27]: 102%
viability, T/C [28]: 90.1%
viability, T/C [29]: 95.2%
viability, T/C [30]: 90.5%
viability, T/C [31]: 106%
viability, T/C [32]: 109%
viability, T/C [33]: 105%
viability, T/C [34]: 114%
viability, T/C [35]: 112%
viability, T/C [36]: 111%

CC1COCCN1c1cc(C2(O)CC3CCC(C2)O3)c2cnn(-c3ccn[nH]3)c2n1 (stereo unspecified) + COC1C(OC(N)=O)C(O)C(Oc2ccc3c(O)c(NC(=O)c4ccc(O)c(CC=C(C)C)c4)c(=O)oc3c2C)OC1(C)C
IC50 (second compound 0.0316 µM): 0.43 µM
IC50 (second compound 0.1 µM): 0.325 µM
IC50 (second compound 0.316 µM): 0.506 µM
IC50 (second compound 1 µM): 0.485 µM
IC50 (second compound 3.16 µM): 0.456 µM
IC50 (second compound 10 µM): 0.307 µM
viability, T/C [1]: 112%
viability, T/C [2]: 89.5%
viability, T/C [3]: 53.8%
viability, T/C [4]: 35.9%
viability, T/C [5]: 24.6%
viability, T/C [6]: 20.8%
viability, T/C [7]: 88.8%
viability, T/C [8]: 92.1%
viability, T/C [9]: 50.4%
viability, T/C [10]: 31.4%
viability, T/C [11]: 28.2%
viability, T/C [12]: 18.8%
viability, T/C [13]: 92.8%
viability, T/C [14]: 91.3%
viability, T/C [15]: 60.8%
viability, T/C [16]: 32.9%
viability, T/C [17]: 34.8%
viability, T/C [18]: 18.7%
viability, T/C [19]: 92.4%
viability, T/C [20]: 77.2%
viability, T/C [21]: 57.9%
viability, T/C [22]: 36.3%
viability, T/C [23]: 28.4%
viability, T/C [24]: 19.5%
viability, T/C [25]: 115%
viability, T/C [26]: 74.5%
viability, T/C [27]: 54.8%
viability, T/C [28]: 42%
viability, T/C [29]: 33%
viability, T/C [30]: 18.6%
viability, T/C [31]: 101%
viability, T/C [32]: 73.7%
viability, T/C [33]: 47.3%
viability, T/C [34]: 36.4%
viability, T/C [35]: 27.9%
viability, T/C [36]: 22.6%

CCc1cc2c(N3CCc4c(cc(Cn5ccnc5)cc4-c4cn(C)nc4C(F)(F)F)C3=O)cc(C)nc2c(OC)n1 + COC1C(OC(N)=O)C(O)C(Oc2ccc3c(O)c(NC(=O)c4ccc(O)c(CC=C(C)C)c4)c(=O)oc3c2C)OC1(C)C
IC50 (second compound 0.0316 µM): > 10 µM
IC50 (second compound 0.1 µM): > 10 µM
IC50 (second compound 0.316 µM): > 10 µM
IC50 (second compound 1 µM): > 10 µM
IC50 (second compound 3.16 µM): > 10 µM
IC50 (second compound 10 µM): > 10 µM
viability, T/C [1]: 130%
viability, T/C [2]: 152%
viability, T/C [3]: 172%
viability, T/C [4]: 158%
viability, T/C [5]: 123%
viability, T/C [6]: 74.5%
viability, T/C [7]: 120%
viability, T/C [8]: 157%
viability, T/C [9]: 124%
viability, T/C [10]: 131%
viability, T/C [11]: 134%
viability, T/C [12]: 68.9%
viability, T/C [13]: 132%
viability, T/C [14]: 126%
viability, T/C [15]: 132%
viability, T/C [16]: 140%
viability, T/C [17]: 119%
viability, T/C [18]: 67.2%
viability, T/C [19]: 141%
viability, T/C [20]: 128%
viability, T/C [21]: 143%
viability, T/C [22]: 158%
viability, T/C [23]: 108%
viability, T/C [24]: 80.7%
viability, T/C [25]: 109%
viability, T/C [26]: 125%
viability, T/C [27]: 133%
viability, T/C [28]: 126%
viability, T/C [29]: 128%
viability, T/C [30]: 73.8%
viability, T/C [31]: 111%
viability, T/C [32]: 109%
viability, T/C [33]: 114%
viability, T/C [34]: 143%
viability, T/C [35]: 123%
viability, T/C [36]: 80%
